{
  "source": "patent US4797280A",
  "about": "“Antibiotics produced by Kibdelosporangium aridum Shearer gen. nov., sp. nov. ATCC 39323” (SmithKline Beckman Corporation, priority 1986, dated 1989)",
  "key": {"[1]": {"system": "swine ileal or cecal inoculum", "assay": "Swine in vitro model (ileal/cecal inoculum fermentation)", "parameters": "species or system swine (Yorkshire barrow)"}, "rumen inoculum": {"system": "rumen inoculum", "assay": "Rumen in vitro model", "parameters": "species or system steer"}, "Kibdelosporangium aridum": {"system": "Kibdelosporangium aridum", "assay": "Susceptibility of K. aridum to antibiotics, disk diffusion", "assay_type": "cell-based", "settings": "28° C., one week", "protocol": "Susceptibility of K. aridum to antibiotics was examined by placing BBL susceptibility disks on nutrient agar plates seeded with K. aridum as an overlay. Diameters of the zones of inhibition were measured after incubation for one week at 28° C.\nSusceptibility to Antibiotics. […] Chlortetracycline ([…]) produced 18 mm zones of inhibition; tetracycline (5 μg) 11-12 mm zones; rifampin (5 μg) 11-15 mm zones; novobiocin (5 μg) 27-28 mm zones. All zones of inhibition contained at least a few resistant colonies."}},
  "data": [
    {"compound": "CN[C@H](CC(C)C)C(=O)N[C@H]1C(=O)N[C@@H](CC(N)=O)C(=O)N[C@H]2C(=O)N[C@H]3C(=O)N[C@H](C(=O)N[C@H](C(=O)O)c4cc(O)cc(O)c4-c4cc3ccc4O)[C@H](O)c3ccc(c(Cl)c3)Oc3cc2cc(c3O[C@@H]2O[C@H](CO)[C@@H](O)[C@H](O)[C@H]2O[C@H]2C[C@](C)(N)[C@H](O)[C@H](C)O2)Oc2ccc(cc2Cl)[C@H]1O", "note": "[Vancomycin]", "values": [
      {"measurement": "GLU", "setting": "[1]; 1.67 ppm", "value": 100, "unit": "% Control"},
      {"measurement": "LAC", "setting": "[1]; 1.67 ppm", "value": 99, "unit": "% Control"},
      {"measurement": "LYS", "setting": "[1]; 1.67 ppm", "value": 83, "unit": "% Control"},
      {"measurement": "VFA", "setting": "[1]; 1.67 ppm", "value": 92, "unit": "% Control"},
      {"measurement": "GLU", "setting": "[1]; 16.67 ppm", "value": 189, "unit": "% Control"},
      {"measurement": "LAC", "setting": "[1]; 16.67 ppm", "value": 59, "unit": "% Control"},
      {"measurement": "LYS", "setting": "[1]; 16.67 ppm", "value": 42, "unit": "% Control"},
      {"measurement": "VFA", "setting": "[1]; 16.67 ppm", "value": 280, "unit": "% Control"},
      {"measurement": "GLU", "setting": "[1]; 166.67 ppm", "value": 190, "unit": "% Control"},
      {"measurement": "LAC", "setting": "[1]; 166.67 ppm", "value": 64, "unit": "% Control"},
      {"measurement": "LYS", "setting": "[1]; 166.67 ppm", "value": 48, "unit": "% Control"},
      {"measurement": "VFA", "setting": "[1]; 166.67 ppm", "value": 250, "unit": "% Control"},
      {"measurement": "% PR", "setting": "rumen inoculum; 0.5 ppm", "value": 105, "unit": "% OF CONTROL"},
      {"measurement": "ACE", "setting": "rumen inoculum; 0.5 ppm", "value": 95, "unit": "% OF CONTROL"},
      {"measurement": "AMO", "setting": "rumen inoculum; 0.5 ppm", "value": 0, "unit": "% OF CONTROL"},
      {"measurement": "BUT", "setting": "rumen inoculum; 0.5 ppm", "value": 96, "unit": "% OF CONTROL"},
      {"measurement": "DLAC", "setting": "rumen inoculum; 0.5 ppm", "value": 0, "unit": "% OF CONTROL"},
      {"measurement": "ETOH", "setting": "rumen inoculum; 0.5 ppm", "value": 0, "unit": "% OF CONTROL"},
      {"measurement": "IBU", "setting": "rumen inoculum; 0.5 ppm", "value": 115, "unit": "% OF CONTROL"},
      {"measurement": "IVA", "setting": "rumen inoculum; 0.5 ppm", "value": 82, "unit": "% OF CONTROL"},
      {"measurement": "LLAC", "setting": "rumen inoculum; 0.5 ppm", "value": 0, "unit": "% OF CONTROL"},
      {"measurement": "PRO", "setting": "rumen inoculum; 0.5 ppm", "value": 103, "unit": "% OF CONTROL"},
      {"measurement": "TOTAL", "setting": "rumen inoculum; 0.5 ppm", "value": 97, "unit": "% OF CONTROL"},
      {"measurement": "UREA", "setting": "rumen inoculum; 0.5 ppm", "value": 0, "unit": "% OF CONTROL"},
      {"measurement": "VAL", "setting": "rumen inoculum; 0.5 ppm", "value": 95, "unit": "% OF CONTROL"},
      {"measurement": "VFA", "setting": "rumen inoculum; 0.5 ppm", "value": 97, "unit": "% Control"},
      {"measurement": "% PR", "setting": "rumen inoculum; 5 ppm", "value": 130, "unit": "% OF CONTROL"},
      {"measurement": "ACE", "setting": "rumen inoculum; 5 ppm", "value": 93, "unit": "% OF CONTROL"},
      {"measurement": "AMO", "setting": "rumen inoculum; 5 ppm", "value": 0, "unit": "% OF CONTROL"},
      {"measurement": "BUT", "setting": "rumen inoculum; 5 ppm", "value": 98, "unit": "% OF CONTROL"},
      {"measurement": "DLAC", "setting": "rumen inoculum; 5 ppm", "value": 0, "unit": "% OF CONTROL"},
      {"measurement": "ETOH", "setting": "rumen inoculum; 5 ppm", "value": 0, "unit": "% OF CONTROL"},
      {"measurement": "IBU", "setting": "rumen inoculum; 5 ppm", "value": 137, "unit": "% OF CONTROL"},
      {"measurement": "IVA", "setting": "rumen inoculum; 5 ppm", "value": 99, "unit": "% OF CONTROL"},
      {"measurement": "LLAC", "setting": "rumen inoculum; 5 ppm", "value": 43, "unit": "% OF CONTROL"},
      {"measurement": "TOTAL", "setting": "rumen inoculum; 5 ppm", "value": 108, "unit": "% OF CONTROL"},
      {"measurement": "UREA", "setting": "rumen inoculum; 5 ppm", "value": 0, "unit": "% OF CONTROL"},
      {"measurement": "VAL", "setting": "rumen inoculum; 5 ppm", "value": 90, "unit": "% OF CONTROL"},
      {"measurement": "VFA", "setting": "rumen inoculum; 5 ppm", "value": 108, "unit": "% Control"},
      {"measurement": "Propionate %", "setting": "rumen inoculum; 5 ppm, propionate as % of total VFA", "value": 130, "unit": "% Control"},
      {"measurement": "% PR", "setting": "rumen inoculum; 50 ppm", "value": 127, "unit": "% OF CONTROL"},
      {"measurement": "ACE", "setting": "rumen inoculum; 50 ppm", "value": 87, "unit": "% OF CONTROL"},
      {"measurement": "AMO", "setting": "rumen inoculum; 50 ppm", "value": 0, "unit": "% OF CONTROL"},
      {"measurement": "BUT", "setting": "rumen inoculum; 50 ppm", "value": 111, "unit": "% OF CONTROL"},
      {"measurement": "DLAC", "setting": "rumen inoculum; 50 ppm", "value": 0, "unit": "% OF CONTROL"},
      {"measurement": "ETOH", "setting": "rumen inoculum; 50 ppm", "value": 0, "unit": "% OF CONTROL"},
      {"measurement": "IBU", "setting": "rumen inoculum; 50 ppm", "value": 164, "unit": "% OF CONTROL"},
      {"measurement": "IVA", "setting": "rumen inoculum; 50 ppm", "value": 212, "unit": "% OF CONTROL"},
      {"measurement": "LLAC", "setting": "rumen inoculum; 50 ppm", "value": 999, "unit": "% OF CONTROL"},
      {"measurement": "PRO", "setting": "rumen inoculum; 50 ppm", "value": 136, "unit": "% OF CONTROL"},
      {"measurement": "TOTAL", "setting": "rumen inoculum; 50 ppm", "value": 107, "unit": "% OF CONTROL"},
      {"measurement": "UREA", "setting": "rumen inoculum; 50 ppm", "value": 0, "unit": "% OF CONTROL"},
      {"measurement": "VAL", "setting": "rumen inoculum; 50 ppm", "value": 83, "unit": "% OF CONTROL"},
      {"measurement": "VFA", "setting": "rumen inoculum; 50 ppm", "value": 107, "unit": "% Control"},
      {"measurement": "Susceptibility of K. aridum", "setting": "Kibdelosporangium aridum; disk 30 μg", "value": "resistant"}
    ]},
    {"compound": "CCC[C@@H]1C[C@@H](C(=O)N[C@@H]([C@H]2O[C@H](SC)[C@H](O)[C@@H](O)[C@H]2O)[C@H](C)Cl)N(C)C1", "note": "[clindamycin]", "values": [
      {"measurement": "Susceptibility of K. aridum", "setting": "Kibdelosporangium aridum; disk 2 μg", "value": "resistant"}
    ]},
    {"compound": "CCC[C@@H]1C[C@@H](C(=O)N[C@@H]([C@H]2O[C@H](SC)[C@H](O)[C@@H](O)[C@H]2O)[C@@H](C)O)N(C)C1", "note": "[lincomycin]", "values": [
      {"measurement": "Susceptibility of K. aridum", "setting": "Kibdelosporangium aridum; disk 2 μg", "value": "resistant"}
    ]},
    {"compound": "CC1(C)S[C@@H]2[C@H](NC(=O)Cc3ccccc3)C(=O)N2[C@H]1C(=O)O", "note": "[penicillin]", "values": [
      {"measurement": "Susceptibility of K. aridum", "setting": "Kibdelosporangium aridum; disk 10 units", "value": "resistant"}
    ]},
    {"compound": "[H]/N=C(/N)N[C@H]1[C@H](O)[C@@H](O)[C@H](O[C@@H]2O[C@@H](C)[C@](O)(C=O)[C@H]2O[C@@H]2O[C@@H](CO)[C@H](O)[C@@H](O)[C@@H]2NC)[C@@H](N/C(N)=N\\[H])[C@@H]1O", "note": "[streptomycin]", "values": [
      {"measurement": "Susceptibility of K. aridum", "setting": "Kibdelosporangium aridum; disk 10 μg", "value": "resistant"}
    ]},
    {"compound": "NC[C@H]1O[C@H](O[C@H]2[C@H](O)[C@@H](O[C@H]3O[C@H](CO)[C@@H](O)[C@H](N)[C@H]3O)[C@H](N)C[C@@H]2N)[C@H](N)C[C@@H]1O", "note": "[tobramycin]", "values": [
      {"measurement": "Susceptibility of K. aridum", "setting": "Kibdelosporangium aridum; disk 10 μg", "value": "resistant"}
    ]},
    {"compound": "gentamicin", "values": [
      {"measurement": "Susceptibility of K. aridum", "setting": "Kibdelosporangium aridum; disk 10 μg", "value": "resistant"}
    ]}
  ]
}
